Test results taken from ChEMBL document CHEMBL1130188, “Synthesis and stereochemical structure-activity relationships of 1,3-dioxoperhydropyrido[1,2-c]pyrimidine derivatives: potent and selective cholecystokinin-A receptor antagonists” (J Med Chem, 1997).

Tests used:
[1] = target: T1, Gastrin/cholecystokinin type B receptor (Rattus norvegicus, UniProt P30553); test: Inhibition of [3H]- pCCK-8 binding to Cholecystokinin type B receptor of rat cerebral cortex membranes; assay type: cell membranes, Membrane
T1 sequence (P30553 whole entry): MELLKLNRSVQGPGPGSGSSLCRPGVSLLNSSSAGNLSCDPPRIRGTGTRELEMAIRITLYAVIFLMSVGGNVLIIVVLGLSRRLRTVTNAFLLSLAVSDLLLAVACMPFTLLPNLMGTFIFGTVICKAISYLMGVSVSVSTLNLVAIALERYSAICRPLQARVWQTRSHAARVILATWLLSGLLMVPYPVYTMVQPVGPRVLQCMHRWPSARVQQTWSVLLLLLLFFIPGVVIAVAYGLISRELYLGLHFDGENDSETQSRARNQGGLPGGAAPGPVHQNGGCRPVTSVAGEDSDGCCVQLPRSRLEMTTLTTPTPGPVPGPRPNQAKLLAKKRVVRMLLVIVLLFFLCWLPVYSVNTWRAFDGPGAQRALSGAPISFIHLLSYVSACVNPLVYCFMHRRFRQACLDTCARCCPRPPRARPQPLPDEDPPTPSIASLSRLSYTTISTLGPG

[2] = target: T2, Cholecystokinin receptor type A (Rattus norvegicus, UniProt P30551); test: Inhibition of [3H]pCCK-8 specific binding to Cholecystokinin type A receptor of rat pancreas
T2 sequence (P30551 whole entry): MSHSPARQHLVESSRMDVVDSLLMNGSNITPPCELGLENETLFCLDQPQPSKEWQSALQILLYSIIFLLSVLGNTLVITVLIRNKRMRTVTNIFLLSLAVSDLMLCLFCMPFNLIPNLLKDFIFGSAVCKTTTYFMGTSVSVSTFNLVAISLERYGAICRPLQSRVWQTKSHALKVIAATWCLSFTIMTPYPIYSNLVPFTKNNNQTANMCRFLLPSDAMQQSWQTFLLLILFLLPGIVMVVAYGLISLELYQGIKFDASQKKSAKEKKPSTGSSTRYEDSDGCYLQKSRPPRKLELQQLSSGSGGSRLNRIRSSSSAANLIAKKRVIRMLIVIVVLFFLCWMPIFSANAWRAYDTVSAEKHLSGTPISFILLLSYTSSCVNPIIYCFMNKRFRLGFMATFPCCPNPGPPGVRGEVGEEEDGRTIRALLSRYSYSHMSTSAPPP

Rattus norvegicus = organism: Rattus norvegicus; test: Compound was tested for inhibition of amylase release stimulated by CCK-8 (0.5 nM) in dispersed pancreatic acini.

Row | SMILES | Ki [1] | Ki [2] | IC50 (Rattus norvegicus)
1 | COC(=O)[C@@]1(Cc2ccccc2)C[C@@H]2[C@@H](NC(=O)[C@H](Cc3c[nH]c4ccccc34)NC(=O)OC(C)(C)C)CCCN2C1=O | > 5000 nM |  | 
2 | CC(C)(C)OC(=O)N[C@H](Cc1c[nH]c2ccccc12)C(=O)N[C@H]1CCCN2C(=O)N(Cc3ccccc3)C(=O)C[C@H]12 | > 5000 nM | > 5000 nM | 
3 | CC(C)(C)OC(=O)N[C@H](Cc1c[nH]c2ccccc12)C(=O)N[C@H]1CCCN2C(=O)N(Cc3ccccc3)C(=O)C[C@@H]12 | > 5000 nM | 298 nM | 
4 | CC(C)(C)OC(=O)N[C@@H](Cc1c[nH]c2ccccc12)C(=O)N[C@H]1CCCN2C(=O)N(Cc3ccccc3)C(=O)C[C@H]12 | > 5000 nM | 572 nM | 
5 | CC(C)(C)OC(=O)N[C@H](Cc1c[nH]c2ccccc12)C(=O)N[C@@H]1CCCN2C(=O)N(Cc3ccccc3)C(=O)C[C@@H]12 | 1890 nM | > 5000 nM | 
6 | COC(=O)[C@]1(Cc2ccccc2)C[C@@H]2[C@@H](NC(=O)[C@@H](Cc3c[nH]c4ccccc34)NC(=O)OC(C)(C)C)CCCN2C1=O | 1560 nM | > 5000 nM | 
7 | CC(C)(C)OC(=O)N[C@H](Cc1c[nH]c2ccccc12)C(=O)N[C@@H]1CCCN2C(=O)N(Cc3ccccc3)C(=O)C[C@H]12 | > 5000 nM |  | 
8 | CC(C)(C)OC(=O)N[C@@H](Cc1c[nH]c2ccccc12)C(=O)N[C@H]1CCCN2C(=O)N(Cc3ccccc3)C(=O)C[C@@H]12 | > 5000 nM | 0.62 nM | 21.3 nM
9 | CN1C(=O)[C@H](NC(=O)c2cc3ccccc3[nH]2)N=C(c2ccccc2)c2ccccc21 |  |  | 25.4 nM
10 | CC(C)(C)OC(=O)N[C@@H](Cc1c[nH]c2ccccc12)C(=O)N[C@@H]1CCCN2C(=O)N(Cc3ccccc3)C(=O)C[C@H]12 | 2730 nM | 10.6 nM | 201 nM
11 | CC(C)(C)OC(=O)N[C@@H](Cc1c[nH]c2ccccc12)C(=O)N[C@@H]1CCCN2C(=O)N(Cc3ccccc3)C(=O)C[C@@H]12 [IQM-95333] | 2910 nM | 2890 nM | 
